Reference: US8022180B2, “Method for preventing and treating Alzheimer's disease” (Affiris Forschungs-und Entwicklungs GmbH, priority 2004, dated 2011)
Where a SMILES comes first, the peptide text is derived from it. Where no end group is shown, it is not given here. [ ]: non-standard residue; d: D form. Tle = CC(C)(C)[C@H](N)C(=O)O

System: monoclonal antibody specific for the natural N-terminal Aβ42 sequence DAEFRH
Experiment: Inhibition assay: mimotope peptides compete with plate-bound DAEFRH-BSA for recognition by the biotinylated monoclonal antibody (ELISA)
Assay type: binding, mice
Parameters: key to inhibition (s/m/—): s: strong inhibition; m: moderate inhibition; —: no inhibition
Settings: for inhibition of epitope recognition by the monoclonal antibody (in words): FIGS. 2-9; for inhibition (s/m/—): peptides of the new screening round and 5mers with non natural amino acids; for Inhibitory capacity of mimotopes: summary Tables 1 and 2, in words
From the text: 1.: Generation of Monoclonal Antibodies (mAb) to Detect Aβ42-Derived Peptide Species with Free N-Terminus (Free Aspartic Acid at the N-Terminus)
Mice are vaccinated with the 6mer peptide DAEFRH (SEQ ID NO: 26) (natural N-terminal Aβ42 sequence) linked to the protein bovine serum albumin BSA (to make use of the hapten-carrier-effect), emulsified in CFA (first injection) and IFA (booster injections). DAEFRH (SEQ ID NO: 26)-peptide-specific, antibody-producing hybridomas are detected by ELISA (DAEFRH (SEQ ID NO: 26)-peptide-coated ELISA plates).
FIGS. 2 and 3 describe the results of inhibition assays performed with mimotope peptides included in and obtained from the 5 libraries (as described). The mimotope peptides compete with the original epitope for recognition by the monoclonal antibody. Original epitope and mimotope peptides contain an additional C at the C-terminus for coupling to a protein carrier (if desired).
(§1) After blocking with PBS/BSA 1% (200 μl/well, 12 h, 4° C.), the plates are washed 3× times with PBS/Tween. Then, biotinylated monoclonal antibody (1:2000, 50 μl/well) and peptides (50 μl/well) at 50, 5, 0.5, 0.05, 0.005, and 0.0005 μg/ml are added for 20 min. at 37° C. The plates are washed 3× times with PBS/Tween and are incubated with horseradish peroxidase (HRP)-labeled streptavidin (100 μl/well, 30 min, RT). The plates are washed 5× times with PBS/Tween and are incubated with ABTS+H2O2 (0.1% w/v, 10 to 45 min) and the reaction is stopped with citric acid followed by photometric evaluation (wavelength 405 nm).
FIGS. 4 and 5 describe the results of inhibition assays performed with mimotope peptides included in and obtained from the 5 libraries (as described). The mimotope peptides compete with the original epitope for recognition by the monoclonal antibody. Original epitope and mimotope peptides contain an additional C at the C-terminus (position 7) for coupling to a protein carrier (if desired).
as §1, with “different concentrations” for “50, 5, 0.5, 0.05, 0.005, and 0.0005 μg/ml”
FIGS. 6 to 8 describe the results of inhibition assays performed with mimotope peptides included in and obtained from the 2 libraries (as described above). The mimotope peptides compete with the original epitope for recognition by the monoclonal antibody. Original epitope and mimotope peptides contain an additional C at the C-terminus (position 7 or position 8, respectively) for coupling to a protein carrier (if desired).

Compound	inhibition of epitope recognition by the monoclonal antibody (in words)	inhibition (s/m/—)	Inhibitory capacity of mimotopes
ATYAYWN [Peptide 4038]	not inhibitory at the concentrations tested	—	
DAEFRWP [Peptide 4011]	strongly block epitope recognition	s	
SWEFRNP [Peptide 4017]	strongly block epitope recognition	s	
VPTSALA [Peptide 4037]	not inhibitory at the concentrations tested	—	
C[C@H](NC(=O)[C@@H](N)CCC(=O)O)C(=O)N[C@@H](CCC(=O)O)C(=O)N[C@@H](Cc1ccccc1)C(=O)N[C@@H](CCCNC(=N)N)C(=O)NCC(=O)N[C@@H](CS)C(=O)O [Peptide 3006, EAEFRG]	block epitope recognition		strong
DIGWRG [Peptide 3011]	not inhibitory at the concentrations tested		none
WHWSWR [Peptide 4004]	not able to inhibit binding		none
DKE(tBuGly)R (DKE[Tle]R) [Peptide 4061]	not inhibitory at the concentrations tested	—	
N=C(N)NCCC[C@H](NC(=O)[C@H](CC1CCCCC1)NC(=O)[C@H](CCC(=O)O)NC(=O)[C@H](CCCCN)NC(=O)[C@@H](N)CC(=O)O)C(=O)N[C@@H](CS)C(=O)O [Peptide 4064, DKEC(Cha)R]	block epitope recognition	m	
CC[C@H](C)[C@H](NC(=O)[C@H](CCCCN)NC(=O)[C@H](CC(C)C)NC(=O)[C@H](CCC(=O)O)NC(=O)[C@H](CCCNC(=N)N)NC(=O)[C@@H](N)CC(=O)O)C(=O)N[C@@H](CS)C(=O)O [Peptide 1237, DRELKI]	block epitope recognition		weak
C[C@H](NC(=O)[C@H](CC(=O)O)NC(=O)[C@H](CCCNC(=N)N)NC(=O)[C@H](Cc1ccccc1)NC(=O)[C@H](CCC(=O)O)NC(=O)[C@H](Cc1c[nH]c2ccccc12)NC(=O)[C@@H](N)CC(=O)O)C(=O)N[C@@H](CS)C(=O)O [Peptide 1241, DWEFRDA]	block epitope recognition		strong
GSEFRDY [Peptide 4013]	moderately inhibit binding	m	
CCC[C@H](NC(=O)[C@H](CCC(=O)O)NC(=O)[C@H](CCCCN)NC(=O)[C@@H](N)CC(=O)O)C(=O)N[C@@H](CCCNC(=N)N)C(=O)N[C@@H](CS)C(=O)O [Peptide 4063, DKE(Nva)R] (HELM PEPTIDE1{D.K.E.[Nva].R.C}$$$$V2.0)	block epitope recognition	m	
CC[C@H](C)[C@H](NC(=O)[C@H](CCCNC(=N)N)NC(=O)[C@H](CC(C)C)NC(=O)[C@H](CCC(=O)O)NC(=O)[C@H](CCCNC(=N)N)NC(=O)[C@@H](N)CC(=O)O)C(=O)N[C@@H](CS)C(=O)O [Peptide 1235, DRELRI]	block epitope recognition		strong
SAEFRAT [Peptide 4016]	strongly block epitope recognition	s	
DISFRG [Peptide 3010]	not inhibitory at the concentrations tested		none
